Results from US11197908B2, “Peptoids and methods for attenuating inflammatory response” (THE BOARD OF TRUSTEES OF THE UNIVERSITY OF ARKANSAS, priority 2018, dated 2021).
Like-named read-outs stand apart in the source and are kept apart here. Where a SMILES comes first, the peptide text is derived from it. [ ]: non-standard residue; d: D form. N(1S-Me-propyl)Gly = CC[C@H](C)NCC(=O)O; Nspe = C[C@H](NCC(=O)O)c1ccccc1; Nlys = NCCCCNCC(=O)O

Legend:
RAGE = RAGE (Homo sapiens, UniProt Q15109); test: Binding affinity for RAGE from binding equilibrium attained in solution (competition ELISA); conditions: 20 nM RAGE, JPT1a 0 to 1000 nM, overnight
Experimental: Definitive binding affinity of JPT1a for RAGE was determined from binding equilibrium attained in solution. As shown in FIGS. 8A-8B, 96-well plates coated with 500 nM JPT1a were treated with overnight incubations containing 20 nM RAGE and JPT1a in concentrations ranging from 0 nM to 1000 nM. Absorbance values were used to calculate relative [RAGE]bound and [RAGE]free via the […] (Friguet B, Chaffotte A F, Djavadi-Ohaniance L, Goldberg M E. Measurements of the true affinity constant in solution of antigen-antibody complexes by enzyme-linked immunosorbent assay. J Immunol Methods. 1985; 77(2):305-319; Rath S, Stanley C M. An inhibition enzyme immunoassay for estimating relative antibody affinity and affinity heterogeneity. 1988; 106:245-249; Newton P, Harrison P, Clulow S. A Novel Method for Determination of the Affinity of Protein: Protein Interactions in Homogeneous Assays. 2008:674-682). FIG. 8A. […] Black dashed lines indicate 95% confidence interval, and gray dashed lines indicate 95% prediction interval, n=4. FIG. 8B. […] Dashed lines indicate 95% confidence interval, n=3.

IL-1β = IL-1β expression in previously LPS-stimulated THP1 macrophages (ELISA); type: cell-based, human; conditions: 25, 5, 1 μM added after 48 h of 2 ng/mL LPS, additional 24 h
Experimental: (§1) THP-1 monocytes were differentiated as described above 20. Upon differentiation, these cells were then incubated (48 h) with media containing low-dose (2 ng/mL) LPS as a chronic pro-inflammatory stimulus 21. Following incubation, JPT1a or JPT1 was added for final concentrations of 25, 5, and 1 μM 22, and cells were incubated an additional 24 h. Treatment with 2 ng/mL LPS alone served as a positive control, while treatment with an equivalent volume of buffer diluted into media served as the vehicle. Media was collected for later assessment of cytokines via ELISA as described above 23. Cells were fixed and stained for RAGE, phalloidin (cytoplasmic marker), and DAPI (nuclear marker) 24. Each channel was imaged with a Zeiss LSM 510 META Confocal Scanning Laser Microscope using a plan-neofluar 40×/1.3 oil DIC immersion objective; three of these multi-channel images were obtained from each slide in each experiment. 25 All multi-channel images were converted to TIFF file format via ImageJ64 software for quantitative image analysis using a custom subroutine written in Matlab™ software to obtain the average RAGE expression per volume of cells, and the data generated was assessed for statistical significance using GraphPad Prism 7.0 software 26.
(§2) As shown in FIGS. 4B-4D, THP1 macrophages were treated with low-dose LPS at 2 ng/mL. […]

E-cadherin = biological target: T1, E-cadherin (Homo sapiens, UniProt P12830); test: E-cadherin binding to JPT1a-coated 96-well plates; conditions: plates coated with 500 nM JPT1a; E-cadherin 1 to 500 nM
T1 sequence (P12830 155-882): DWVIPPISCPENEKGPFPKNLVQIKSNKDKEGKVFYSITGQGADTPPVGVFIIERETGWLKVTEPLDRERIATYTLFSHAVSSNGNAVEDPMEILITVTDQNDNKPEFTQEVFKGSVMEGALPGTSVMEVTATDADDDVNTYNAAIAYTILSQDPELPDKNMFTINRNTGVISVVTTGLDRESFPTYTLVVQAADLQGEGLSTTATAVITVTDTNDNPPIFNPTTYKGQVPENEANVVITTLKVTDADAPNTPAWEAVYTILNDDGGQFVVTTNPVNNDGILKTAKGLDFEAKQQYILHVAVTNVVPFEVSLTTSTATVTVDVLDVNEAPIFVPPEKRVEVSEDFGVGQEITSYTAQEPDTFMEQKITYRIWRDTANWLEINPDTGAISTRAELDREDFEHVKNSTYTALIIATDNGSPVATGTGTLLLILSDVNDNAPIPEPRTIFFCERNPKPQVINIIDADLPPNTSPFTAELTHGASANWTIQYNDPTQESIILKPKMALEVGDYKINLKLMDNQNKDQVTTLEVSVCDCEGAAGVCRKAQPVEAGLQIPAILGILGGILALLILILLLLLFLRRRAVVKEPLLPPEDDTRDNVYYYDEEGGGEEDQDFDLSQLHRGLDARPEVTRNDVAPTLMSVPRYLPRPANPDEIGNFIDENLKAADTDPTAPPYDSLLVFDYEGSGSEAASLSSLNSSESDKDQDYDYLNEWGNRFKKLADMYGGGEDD
Experimental: As shown in FIGS. 7A-7D, 96-well plates coated with 500 nM JPT1a were treated with concentrations of RAGE (FIG. 7A) or E-cadherin (FIG. 7B) ranging from 1 to 500 nM. Values are reported as the average concentration of bound protein determined from all experiments. Error bars indicate SEM, n=2-5. […] In FIG. 7D, 96-well plates coated with 500 nM JPT1 were treated with concentrations of RAGE ranging from 1 to 350 nM.

Aβ1-40 = biological target: T2, Aβ1-40 (Homo sapiens, UniProt P05067); conditions: cited from earlier work
T2 construct: modulate Aβ1-40 aggregation

IL-6 = IL-6 expression in previously LPS-stimulated THP1 macrophages (ELISA); type: cell-based, human; conditions: 25, 5, 1 μM added after 48 h of 2 ng/mL LPS, additional 24 h
Experimental: as §1, §2

RAGE, sequence (Q15109 23-404): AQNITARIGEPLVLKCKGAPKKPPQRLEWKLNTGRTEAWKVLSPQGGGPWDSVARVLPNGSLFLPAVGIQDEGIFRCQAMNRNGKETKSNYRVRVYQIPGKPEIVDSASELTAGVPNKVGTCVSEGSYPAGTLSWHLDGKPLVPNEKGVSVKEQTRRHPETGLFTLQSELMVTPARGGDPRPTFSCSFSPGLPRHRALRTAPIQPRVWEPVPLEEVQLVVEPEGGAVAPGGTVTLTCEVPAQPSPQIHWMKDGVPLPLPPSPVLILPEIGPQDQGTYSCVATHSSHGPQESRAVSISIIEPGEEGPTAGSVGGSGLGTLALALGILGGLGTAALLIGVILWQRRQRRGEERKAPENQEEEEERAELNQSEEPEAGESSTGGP
T2 sequence (P05067 672-711 limits assumed): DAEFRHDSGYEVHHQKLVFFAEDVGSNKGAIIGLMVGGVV

Compound: CC[C@H](C)N(CC(=O)N(CC(=O)N(CC(=O)N(CC(=O)N(CC(=O)N(CC(=O)N(CC(N)=O)[C@@H](C)c1ccccc1)[C@@H](C)c1ccccc1)[C@@H](C)CC)[C@@H](C)c1ccccc1)[C@@H](C)c1ccccc1)[C@@H](C)CC)C(=O)CNCCCCN [JPT1a] (H-[Nlys][N(1S-Me-propyl)Gly][N(1S-Me-propyl)Gly][Nspe][Nspe][N(1S-Me-propyl)Gly][Nspe][Nspe]-NH2)
- Kd (RAGE; n=3, read-out: Kd, plot of specific binding (one epitope)): 79 ± 28.4 nM
- Kd (RAGE; n=4, read-out: binding affinity for RAGE (Scatchard plot)): 139 nM
- IL-1β production of previously stimulated macrophages (IL-1β): does not affect cytokine production
- binding to E-cadherin (E-cadherin): absence of binding
- Aβ1-40 aggregation (Aβ1-40): capacity to modulate Aβ1-40 aggregation
- IL-6 production of previously stimulated macrophages (IL-6): does not affect cytokine production
